According to the Bradley open melting point set (2014):
Values joined by “and” are separate entries in the source; they are usually repeats but may differ in a detail not shown here. Equal entries are not always repeated.

| SMILES | melting point |
| --- | --- |
| NC(=S)Nc1cccc2ccccc12 [N-(1-naphthyl)thiourea] | 188 °C |
| Cc1ccccc1CNC(=O)c1ccccc1 [N-(2-methylbenzyl)benzamide] | 118 °C |
| O=C1c2ccccc2C(=O)N1OCCCCBr [N-(4-bromobutoxy)phthalimide] | 71 °C |
| O=C1C=CC(=O)N1c1ccc(Br)cc1 [N-(4-bromophenyl)maleimide] | 129 °C |
| c1cc(ccc1NC(=O)/C=CC(=O)O)F [N-(4-fluorophenyl)maleamic acid] | 208 °C |
| CSCC[C@H](NC(C)=O)C(=O)O [N-Acetyl-L-methionine] | 106 °C |
| Cc1ccc(S(=O)(=O)NC2CCCCC2)cc1 [N-Cyclohexyl-4-methylbenzenesulfonamide] | 84.5 °C |
| CCNCC [N-Ethylethanamine] | -50 °C |
| CNc1ccccc1 [N-Methylaniline] | -57 °C |
| c1ccc(Nc2ccccc2)cc1 [N-Phenylaniline] | 53 °C |
| CC(=O)Nc1ccccc1NNc1ccccc1 [N-[2-(2-phenylhydrazino)phenyl]acetamide] | 168 °C |
| CCCC[C@@H](NC(=O)OCc1ccccc1)C(=O)O [N-benzyloxycarbonyl-D-norleucine] | 57 °C |
| O=C(O)CC[C@H](NC(=O)OCc1ccccc1)C(=O)O [N-benzyloxycarbonyl-l-glutamic acid] | 119 °C |
| O=C(N[C@H](CO)Cc1ccccc1)OCc1ccccc1 [N-benzyloxycarbonyl-l-phenylalaninol] | 94 °C |
| CC(C)(C)OC(=O)N[C@@H](Cc1ccccc1)C(=O)O [N-boc-L-phenylalanine] | 87 °C |
| CCCCOc1ccccc1 [N-butyl phenyl ether] | -19 °C |
| Cc1ccc(S(=O)(=O)NC2CCCCC2)cc1 [N-cyclohexyl-p-toluenesulfonamide] | 88 °C |
| O=C(NC1CCCCC1)c1ccccc1 [N-cyclohexylbenzamide] | 162 °C |
| CC(C)[C@H](NC(=O)OCC1c2ccccc2-c2ccccc21)C(=O)O [N-fmoc-L-valine] | 144 °C |
| CCCCCCCCCCCCCCCCC [N-heptadecane] | 22 °C |
| CCCCCCS(=O)(=O)CC#N [N-hexylsulfonylacetonitrile] | 42 °C |
| CNc1ccccc1 [N-methylaniline] | -57 °C |
| CCCCCCCCCCCCCCCCCCC [N-nonadecane] | 33 °C |
| CCCCCCCC [N-octane] | -57 °C |
| CCCCCCCCc1ccccc1 [N-octylbenzene] | -36 °C |

| SMILES | melting point |
| --- | --- |
| C#CCN1C(=O)c2ccccc2C1=O [N-propargylphthalimide] | 150 °C |
| CCCCCCCCCCCCCCCCCCCCCCC [N-tricosane] | 49 °C |
| CCCCCCCCCCCCCc1ccccc1 [N-tridecylbenzene] | 10 °C |
| NC(=O)c1cccnc1 [Nicotinamide] | 130 °C |
| CCCCCCCCC [Nonane] | -53 °C |
| CC1C=CC=CCCC=CC=CC=CC=CC(OC2O[C@H](C)[C@@H](O)[C@H](N)[C@@H]2O)CC(O)C(C(=O)O)C(O)CC(=O)CC(O)C(O)CCC(O)CC(O)CC(O)CC(=O)OC(C)C(C)C1O (some centres undefined) [Nystatin] | 160 °C |
| Cc1cc(C=O)c(C)n1-c1cc(C(F)(F)F)cc(C(F)(F)F)c1 [OSM-S-36] | 95.5 °C |
| CC(=O)N(C1=NC(=O)/C(=C/c2cc(C)n(-c3ccc(C)cc3)c2C)S1)c1ccccc1 [OSM-S-50] | 257 °C |
| ClC(Cl)=C(Cl)c1c(Cl)c(Cl)c(Cl)c(Cl)c1Cl [Octachlorostyrene] | 95 °C |
| C1CO1 [Oxirane] | -111 °C |
| CN(C)[C@@H]1C(O)=C(C(N)=O)C(=O)[C@@]2(O)C(O)=C3C(=O)c4c(O)cccc4[C@@](C)(O)[C@H]3[C@H](O)[C@@H]12 [Oxytetracycline] | 183 °C |
| Clc1ccc(-c2cc(Cl)ccc2Cl)cc1 [PCB-31] | 65 °C |
| Clc1ccc(-c2cc(Cl)c(Cl)cc2Cl)cc1Cl [PCB-118] | 110 °C |
| Clc1cc(Cl)c(-c2cc(Cl)c(Cl)cc2Cl)cc1Cl [PCB-153] | 103 °C |
| Oc1cc(Cl)c(-c2c(Cl)cc(Cl)cc2Cl)c(Cl)c1O [PCB-155] | 113 °C |
| Clc1cc(Cl)c(-c2cc(Cl)c(Cl)c(Cl)c2Cl)cc1Cl [PCB-180] | 112 °C |
| Clc1cc(-c2cc(Cl)c(Cl)c(Cl)c2Cl)c(Cl)c(Cl)c1Cl [PCB-194] | 157 °C |
| O=[N+]([O-])c1c(Cl)c(Cl)c(Cl)c(Cl)c1Cl [Pentachloronitrobenzene] | 144 °C |
| Oc1c(Cl)c(Cl)c(Cl)c(Cl)c1Cl [Pentachlorophenol] | 174 °C |
| Cc1c(Cl)c(Cl)c(Cl)c(Cl)c1Cl [Pentachlorotoluene] | 225 °C |
| O=C(O)C(F)(F)C(F)(F)C(F)(F)C(F)(F)C(F)(F)C(F)(F)C(F)(F)F [Pentadecafluorooctanoic acid] | 55.5 °C |
| OCC(CO)(CO)CO [Pentaerythritol] | 260 °C |
| [O-][I+3]([O-])([O-])O [Periodic acid] | 122 °C |
| CCOc1ccc(NC(C)=O)cc1 [Phenacetin] | 135 °C |

Continued, values first:

| melting point | SMILES |
| --- | --- |
| 144 °C | COc1ccccc1NC(=O)/C=CC(=O)O [N-(2-methoxyphenyl)maleamic acid] |
| 114 °C | CC(C)(C)c1cnc(C(=O)Nc2cccc(Br)c2)cn1 [N-(3-bromophenyl)-5-tert-butylpyrazine-2-carboxamide] |
| 99 °C and 100 °C | CN(C)c1ccc(/C=N/c2ccccc2)cc1 [N-(4-Dimethylaminobenzylidene)aniline] |
| 134 °C | CCOc1ccc(NC(C)=O)cc1 [N-(4-Ethoxyphenyl)acetamide] |
| 106 °C | CSCC[C@H](NC(C)=O)C(=O)O [N-Acetylmethionine] |
| -29.5 °C | CCC(C)=NO [N-Hydroxybutan-2-imine] |
| 159 °C | CN1C(=O)CCC(N2C(=O)c3ccccc3C2=O)C1=O (centres undefined) [N-Methylthalidomide] |
| -56.8 °C | CCCCCCCC [N-Octane] |
| 136 °C | CCCN1C(=O)CCC(N2C(=O)c3ccccc3C2=O)C1=O (centres undefined) [N-Propylthalidomide] |
| 44.5 °C | CCCCCCCCCCCCC(=O)O [N-Tridecanoic Acid] |
| 115 °C | O=[N+]([O-])c1cccc2cccc(/C=N/c3ccccc3)c12 [N-[(1E)-(8-nitronaphthalen-1-yl)methylidene]aniline] |
| 182 °C | CC(=O)NS(=O)(=O)c1ccc(N)cc1 [N-[(4-Aminophenyl)sulfonyl]acetamide] |
| 74 °C | C=CCNC(N)=S [N-allylthiourea] |
| 77 °C | CC(C)(C)OC(=O)N[C@H](Cc1cccc(F)c1)C(=O)O [N-boc-3-fluoro-d-phenylalanine] |
| 119 °C | CC(C)(C)OC(=O)N[C@@H](Cc1ccc(Br)cc1)C(=O)O [N-boc-4-bromo-L-phenylalanine] |
| 83 °C | C[C@@H](NC(=O)OC(C)(C)C)C(=O)O [N-boc-D-alanine] |
| 87 °C | CC(C)(C)OC(=O)N[C@H](Cc1ccccc1)C(=O)O [N-boc-D-phenylalanine] |
| 61 °C | CC(C)(C)OC(=O)N1CCC[C@H]1CO [N-boc-L-prolinol] |
| -113 °C | C=COCCCC [N-butyl vinyl ether] |
| 111 °C | O=C(NC(CO)C(=O)O)OCc1ccccc1 (centres undefined) [N-carbobenzoxy-serine] |
| 45 °C | CCCCCCCCCCCCCCCCCCCCCC [N-docosane] |
| 37 °C | CCCCCCCCCCCCCCCCCCCC [N-eicosane] |
| -91 °C | CCCCCCC [N-heptane] |
| 18 °C | CCCCCCCCCCCCCCCC [N-hexadecane] |
| -80 °C | CCCCCCOC(C)=O [N-hexyl acetate] |

| melting point | SMILES |
| --- | --- |
| 53 °C | Cn1c2c(c3ccccc31)CCCC2 [N-methyl-1,2,3,4-tetrahydrocarbazole] |
| 27 °C | CNC(C)=O [N-methylacetamide] |
| -53 °C | CCCCCCCCC [N-nonane] |
| 150 °C | O=C(Nc1ccccc1)Nc1nnc(C(F)(F)F)s1 [N-phenyl-N'-[5-(trifluoromethyl)-1,3,4-thiadiazol-2-yl]urea] |
| 187 °C | O=C(O)c1ccccc1Nc1ccccc1 [N-phenylanthranilic acid] |
| 196 °C | O=C(O)CN1C(=O)c2ccccc2C1=O [N-phthaloylglycine] |
| 151 °C | C#CCON1C(=O)c2ccccc2C1=O [N-propargyloxyphthalimide] |
| 67 °C | CCCCCCCCCCCCCCCCCCCCCCCCCCCCCC [N-triacontane] |
| 113 °C | CC(=O)Nc1ccccc1/C=C/c1ccccc1 [N-{2-[(E)-2-phenylethenyl]phenyl}acetamide] |
| 237 °C | O=C(O)c1cccnc1 [Nicotinic acid] |
| 173 °C | COC(=O)C1=C(C)NC(C)=C(C(=O)OC)C1c1ccccc1[N+](=O)[O-] [Nifedipine] |
| 33 °C | CCCCCCCCCCCCCCCCCCC [Nonadecane] |
| 278 °C | Cc1cc(/C=C2\SC(=Nc3ccccc3)N=C2O)c(C)n1-c1ccc(F)cc1 [OSM-S-10] |
| 168 °C | Cc1c(C(=O)O)cnn1-c1ccccc1 [OSM-S-24] |
| 73 °C | Cc1cc(/C=C2\S/C(=N\c3ccccc3)N(CC#N)C2=O)c(C)n1-c1ccc(C(F)(F)F)cc1 [OSM-S-43] |
| 113 °C | CCOC(=O)c1ccc(-n2c(C)cc(C=O)c2C)cc1 [OSM-S-46] |
| 176 °C | O=C1CS/C(=N\c2ccccc2)N1c1ccccc1 [OSM-S-47] |
| 226 °C | Cc1cc(/C=C2\S/C(=N\c3ccccc3)N(c3ccccc3)C2=O)c(C)n1-c1ccc(C(F)(F)F)cc1 [OSM-S-52] |
| 254 °C | CC1COc2c(N3CCN(C)CC3)c(F)cc3c(=O)c(C(=O)O)cn1c23 (centres undefined) [Ofloxacin] |
| 156 °C | COc1ccc2[nH]c([S+]([O-])Cc3ncc(C)c(OC)c3C)nc2c1 (centres undefined) [Omeprazole] |
| 16.8 °C | O=S(=O)=O [Oxosulfane dioxide] |
| 185 °C | COc1ccc(C(=O)O)cc1 [P-Anisic Acid] |
| -165 °C | C=CCCC [Pent-1-ene] |
| -23 °C | CC(=O)CC(C)=O [Pentane-2,4-dione] |
| -130 °C | CCCCC [Pentane] |
